Our source for the IC50 and Kd values is patent US20250368666A1, “INDAZOLE COMPOUNDS” (TYRA BIOSCIENCES, INC., priority 2022, published 2025).

Molecules are shown by their SMILES.

The test system of test [1] is HuH7 cell line (FGF19 amplification). Briefly: Cancer cell line cell viability assay (Cell Titer-Glo), 120 hr. The test is classed as cell-based. The note with it: Homo sapiens, Huh-7. An excerpt:
Experimental Purpose: To detect the change of intracellular ATP by Cell Titer-Glo® and to evaluate the inhibitory effect of the compounds on cancer cell lines by determining the in vitro IC50 value of the compounds.
Cell Titer-Glo® 2.0 Luminescent cell viability assay reagent was purchased from Promega (Madison, WI). KG-1, KATO-III, and MDA-MB-453 cell lines were purchased from American Type Culture Collection (Manassas, VA). RT112/84 cell line was purchased from Millipore-Sigma (St. Louis, MO). HuH7 cells were purchased from Seikisui Xenotech (Kansas City, KS). RT112/84 and MDA-MB-453 cells were cultured in RPMI1640 media supplemented with 10% fetal bovine serum. KG-1 and KATO-III cell lines were cultured in IMDM media supplemented with 20% FBS. HuH7 cells were cultured in IMDM media supplemented with 10% FBS. Cultures were maintained at 37° C. in a humidified atmosphere of 5% CO2 and 95% air.
Cell Viability Assay Procedure: Cells were plated in 96-well clear bottom/white plates (Corning #3903) at a range of densities depending on the optimal assay window (5,000-20,000 cells/well in […] of media), incubated overnight. The next day, test compound DMSO stock solutions were made at 10 mM and […] final concentration. Compounds were then added to cells in a 9-dose, 4-fold dilution series starting at 3 μM with an HP 300e Digital Dispenser (each dose was applied in triplicate). DMSO was backfilled to each well up to 301 nL total volume of test compound+DMSO, and a total of 301 nL DMSO was added to a control/no test compound well in triplicate. The cells in cell culture plates were incubated with the compounds at 37° C. and 5% CO2 for 72 hours-120 hours depending on the cell line. Then 50 μl of Cell Titer Glo 2.0 reagent was added to each well of the cell culture plates. The contents were covered from light and mixed on an orbital shaker at room temperature for minimum of 10 min. Luminescence was recorded by a Clariostar Plus Microplate Reader (BMG Labtech, Cary, NC). Cells were assessed as a percentage of DMSO only treated control cells. Curves were plotted and IC50 values were calculated using the GraphPad Prism 9 program based on a sigmoidal dose-response equation (log (inhibitor) vs. response—Variable slope, 4-parameter).
(In general: ATP-based viability assays read luminescence as a measure of living cells.)

A further test has as its target T1, FGFR3 (Homo sapiens, UniProt P22607).
T1 construct: made in house; host or cells: E. coli (BL21-derived), T7 phage
Description: Kinase binding assay (kinase-tagged T7 phage, affinity beads, qPCR), Kd. As to conditions: read-out: FGFR3 (Kd nM). In a few lines:
(§1)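 Competition binding of compounds against kinase-tagged T7 phage captured on immobilised biotinylated ligand beads; bead-bound kinase quantified by qPCR of eluates. 11-point 3-fold dilution, 0.9% DMSO final; Kd from Hill fit with slope fixed at −1.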
(Real-time PCR tracks product formation cycle by cycle.)

Another test concerns the target T2, FGFR1 (Homo sapiens, UniProt P11362).
T2 construct: made in house; host or cells: E. coli (BL21-derived), T7 phage
The test is described as above. As to conditions: read-out: FGFR1 (Kd nM). A digest of the protocol: as §1

A further test deals with T3, FGFR2 (Homo sapiens, UniProt P21802).
T3 construct: made in house; host or cells: E. coli (BL21-derived), T7 phage
The test is described as above. The note with it: read-out: FGFR2 (Kd nM). In a few lines:
as §1

In another test the target is T4, FGFR3 (V555M) (Homo sapiens, UniProt P22607, V555M).
T4 construct: made in house; host or cells: E. coli (BL21-derived), T7 phage
The test is described as above. The note with it: V555M mutant; read-out: FGFR3 (V555M) (Kd nM). A digest of the protocol: as §1

The target of the next test is T5, FGFR4 (Homo sapiens, UniProt P22455).
T5 construct: made in house; host or cells: E. coli (BL21-derived), T7 phage
The test is described as above. The note with it: read-out: FGFR4 (Kd nM). In a few lines: as §1

T5 sequence (P22455 22-802): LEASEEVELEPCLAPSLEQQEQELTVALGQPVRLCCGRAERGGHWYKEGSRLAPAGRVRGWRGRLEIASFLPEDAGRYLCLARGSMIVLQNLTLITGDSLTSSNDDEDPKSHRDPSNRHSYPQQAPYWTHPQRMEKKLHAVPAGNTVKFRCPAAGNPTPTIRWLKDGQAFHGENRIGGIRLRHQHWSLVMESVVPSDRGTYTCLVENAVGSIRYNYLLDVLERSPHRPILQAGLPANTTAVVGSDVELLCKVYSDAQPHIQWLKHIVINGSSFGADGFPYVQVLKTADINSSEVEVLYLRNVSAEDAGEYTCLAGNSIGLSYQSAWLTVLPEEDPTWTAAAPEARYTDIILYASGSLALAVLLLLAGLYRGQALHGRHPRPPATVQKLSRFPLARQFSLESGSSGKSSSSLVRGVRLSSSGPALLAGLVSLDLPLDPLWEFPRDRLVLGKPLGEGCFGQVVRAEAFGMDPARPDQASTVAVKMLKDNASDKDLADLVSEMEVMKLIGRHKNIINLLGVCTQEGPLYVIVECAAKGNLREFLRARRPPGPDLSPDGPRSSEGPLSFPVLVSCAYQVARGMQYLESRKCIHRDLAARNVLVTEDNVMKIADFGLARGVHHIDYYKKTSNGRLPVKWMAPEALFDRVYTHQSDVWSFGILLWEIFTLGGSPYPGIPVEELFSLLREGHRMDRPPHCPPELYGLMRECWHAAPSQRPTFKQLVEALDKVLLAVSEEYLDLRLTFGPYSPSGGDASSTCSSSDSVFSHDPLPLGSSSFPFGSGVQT
T3 sequence (P21802 22-821): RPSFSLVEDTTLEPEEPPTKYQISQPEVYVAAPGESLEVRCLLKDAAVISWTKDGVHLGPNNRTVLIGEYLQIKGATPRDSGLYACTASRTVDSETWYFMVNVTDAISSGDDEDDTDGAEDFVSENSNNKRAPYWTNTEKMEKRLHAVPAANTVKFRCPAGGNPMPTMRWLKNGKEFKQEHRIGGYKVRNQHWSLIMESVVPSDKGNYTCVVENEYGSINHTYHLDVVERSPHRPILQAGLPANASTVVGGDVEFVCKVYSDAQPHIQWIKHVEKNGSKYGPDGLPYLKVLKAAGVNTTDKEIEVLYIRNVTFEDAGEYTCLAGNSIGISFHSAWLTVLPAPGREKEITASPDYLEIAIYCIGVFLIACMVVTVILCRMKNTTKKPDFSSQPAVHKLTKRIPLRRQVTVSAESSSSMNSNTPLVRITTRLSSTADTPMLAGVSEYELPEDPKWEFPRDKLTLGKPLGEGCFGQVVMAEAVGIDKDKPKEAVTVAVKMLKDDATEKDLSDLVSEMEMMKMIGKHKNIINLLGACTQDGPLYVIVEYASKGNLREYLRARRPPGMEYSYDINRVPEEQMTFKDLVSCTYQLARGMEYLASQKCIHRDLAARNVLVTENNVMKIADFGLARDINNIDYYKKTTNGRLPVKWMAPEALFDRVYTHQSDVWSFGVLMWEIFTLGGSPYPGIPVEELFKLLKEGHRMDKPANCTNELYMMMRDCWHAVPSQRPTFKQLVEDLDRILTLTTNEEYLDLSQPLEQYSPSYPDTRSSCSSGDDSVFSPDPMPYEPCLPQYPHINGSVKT
T2 sequence (P11362 22-822): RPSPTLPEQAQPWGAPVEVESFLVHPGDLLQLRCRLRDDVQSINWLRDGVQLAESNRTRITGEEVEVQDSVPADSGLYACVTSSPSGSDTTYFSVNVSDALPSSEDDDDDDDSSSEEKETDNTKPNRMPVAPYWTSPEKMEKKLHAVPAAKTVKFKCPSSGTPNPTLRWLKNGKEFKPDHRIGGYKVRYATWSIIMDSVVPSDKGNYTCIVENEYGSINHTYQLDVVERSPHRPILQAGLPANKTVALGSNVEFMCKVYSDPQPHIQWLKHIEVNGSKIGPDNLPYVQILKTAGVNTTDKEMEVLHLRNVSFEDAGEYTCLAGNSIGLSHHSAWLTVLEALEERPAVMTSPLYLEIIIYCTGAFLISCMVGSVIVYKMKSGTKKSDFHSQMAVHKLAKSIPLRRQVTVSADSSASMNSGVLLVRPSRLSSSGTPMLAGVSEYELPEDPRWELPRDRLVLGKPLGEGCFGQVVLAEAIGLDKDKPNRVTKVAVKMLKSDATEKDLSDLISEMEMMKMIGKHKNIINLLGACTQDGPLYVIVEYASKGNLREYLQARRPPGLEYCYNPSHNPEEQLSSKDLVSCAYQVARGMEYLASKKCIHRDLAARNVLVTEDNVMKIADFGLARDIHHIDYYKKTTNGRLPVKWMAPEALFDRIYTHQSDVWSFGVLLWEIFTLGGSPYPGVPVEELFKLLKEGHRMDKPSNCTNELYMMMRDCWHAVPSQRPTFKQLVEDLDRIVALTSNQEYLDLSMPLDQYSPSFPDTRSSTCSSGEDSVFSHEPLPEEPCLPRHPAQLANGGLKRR
T4 sequence (P22607 23-806 V555M): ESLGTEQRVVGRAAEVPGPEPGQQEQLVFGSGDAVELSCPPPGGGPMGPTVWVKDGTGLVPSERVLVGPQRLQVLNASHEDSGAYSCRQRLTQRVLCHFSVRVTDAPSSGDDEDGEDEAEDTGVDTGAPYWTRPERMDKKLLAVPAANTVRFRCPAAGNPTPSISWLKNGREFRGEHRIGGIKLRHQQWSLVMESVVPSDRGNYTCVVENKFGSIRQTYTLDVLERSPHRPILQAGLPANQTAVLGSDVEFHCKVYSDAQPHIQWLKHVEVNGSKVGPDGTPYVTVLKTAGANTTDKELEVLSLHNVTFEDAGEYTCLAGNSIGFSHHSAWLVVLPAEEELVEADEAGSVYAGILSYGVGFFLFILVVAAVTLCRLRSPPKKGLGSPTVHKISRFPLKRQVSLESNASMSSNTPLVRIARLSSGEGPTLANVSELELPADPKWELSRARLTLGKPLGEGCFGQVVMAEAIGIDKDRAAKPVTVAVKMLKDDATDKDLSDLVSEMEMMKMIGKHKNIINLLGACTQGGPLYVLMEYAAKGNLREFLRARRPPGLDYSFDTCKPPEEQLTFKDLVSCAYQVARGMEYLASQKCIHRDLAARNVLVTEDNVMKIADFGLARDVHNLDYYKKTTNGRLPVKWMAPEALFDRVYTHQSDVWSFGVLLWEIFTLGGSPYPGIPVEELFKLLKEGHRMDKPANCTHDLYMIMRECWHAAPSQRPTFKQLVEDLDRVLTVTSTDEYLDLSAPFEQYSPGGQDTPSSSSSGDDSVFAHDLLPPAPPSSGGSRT
T1 sequence (P22607 23-806): as the sequence (P22607 23-806 V555M) above, with M533V counted along it

Broadly, the IC50 is the point on the concentration scale where inhibition reaches its midpoint. A higher IC50 goes with a need for much substance. By Kd is commonly meant the constant that tells how readily two partners part at equilibrium. As for `COc1cc2[nH]nc(-c3cnc(N4C[C@H](CS(C)(=O)=O)[C@H]4C)c(C#N)c3)c2cc1O[C@@H](C)c1c(Cl)cncc1Cl` [Example 335, 5-(5-((S)-1-(3,5-dichloropyridin-4-yl)ethoxy)-6-methoxy-1H-indazol-3-yl)-2-((2R,3S)-2-methyl-3-((meth-ylsulfonyl)meth-yl)azetidin-1-yl)nicotinonitrile], the IC50 in test [1] lay in the range of 200 to 1000 nM. The Kd on FGFR3 was 300 to 1000 nM; on FGFR1 it was above 1000 nM; on FGFR2, above 1000 nM; at FGFR3 (V555M), 300 to 1000 nM; at FGFR4, 1 to 50 nM.
`CCN(CC)C1(C)CN(c2ncc(-c3n[nH]c4ccc(O[C@H](C)c5c(Cl)cnc(C)c5Cl)cc34)cc2C#N)C1` [Example 36, 5-[5-[(1R)-1-(3,5-dichloro-2-methyl-4-pyridyl)ethoxy]-1H-indazol-3-yl]-2-[3-(diethylamino)-3-methyl-azetidin-1-yl]pyridine-3-carbonitrile] came in with an IC50 in test [1] of 200 to 1000 nM. In addition, the Kd lay within 1 to 50 nM at FGFR3; 50 to 300 nM at FGFR1; 50 to 300 nM at FGFR2; 1 to 50 nM at FGFR3 (V555M); 1 to 50 nM on FGFR4.
On to `C[C@@H](Oc1cc2c(-c3cnc(N4CC(C)(N5CCOCC5)C4)c(C#N)c3)n[nH]c2cc1F)c1c(Cl)cncc1Cl` [Example 124, (R)-5-(5-(1-(3,5-dichloropyridin-4-yl)ethoxy)-6-fluoro-1H-indazol-3-yl)-2-(3-methyl-3-morpholinoazetidin-1-yl)nicotinonitrile], for which, in test [1], the half-maximal inhibitory concentration (IC50) was 50 to 200 nM. The Kd at FGFR3 lay within 1 to 50 nM; at FGFR1 it was 50 to 300 nM; at FGFR2, 50 to 300 nM; on FGFR3 (V555M), 1 to 50 nM; at FGFR4, 1 to 50 nM.
The molecule `COc1cc2[nH]nc(-c3cnc(N4CC(C)(NC5CCC5)C4)c(C#N)c3)c2cc1O[C@H](C)c1c(Cl)cncc1Cl` [Example 12, (R)-2-(3-(cyclobutylamino)-3-methylazetidin-1-yl)-5-(5-(1-(3,5-dichloropyridin-4-yl)ethoxy)-6-methoxy-1H-indazol-3-yl)nicotinonitrile] showed an IC50 in test [1] of 0.1 to 50 nM. The Kd on FGFR3, on FGFR1, on FGFR2, at FGFR3 (V555M) and on FGFR4 was 1 to 50 nM each time.
Consider `COc1cc2[nH]nc(-c3cnc(N4CC5(CC5)C4)nc3)c2cc1O[C@H](C)c1c(Cl)cncc1Cl` [Example 62, 3-[2-(5-azaspiro[2.3]hexan-5-yl)pyrimidin-5-yl]-5-[(1R)-1-(3,5-dichloro-4-pyridyl)ethoxy]-6-methoxy-1H-indazole], for which, in test [1], the IC50 fell in the range of 0.1 to 50 nM. Also, the Kd on FGFR3, on FGFR1, on FGFR2, at FGFR3 (V555M) and on FGFR4 was 1 to 50 nM throughout.
Consider `Cc1ncc(Cl)c([C@@H](C)Oc2ccc3[nH]nc(-c4cnc(N5CC(C)(OC(C)C)C5)c(C#N)c4)c3c2)c1Cl` [Example 13, 5-[5-[(1R)-1-(3,5-dichloro-2-methyl-4-pyridyl)ethoxy]-1H-indazol-3-yl]-2-(3-isopropoxy-3-methyl-azetidin-1-yl)pyridine-3-carbonitrile], for which the half-inhibitory concentration (IC50) in test [1] is 200 to 1000 nM. Moreover, the Kd at FGFR3 was 50 to 300 nM; on FGFR1 it was above 1000 nM; on FGFR2 it was above 1000 nM; on FGFR3 (V555M), 50 to 300 nM; on FGFR4 it was 1 to 50 nM.
In the case of `Cc1ncc(Cl)c([C@@H](C)Oc2ccc3[nH]nc(-c4cnc(N5CC(C)(N(C)C)C5)c(C#N)c4)c3c2)c1Cl` [Example 45, 5-[5-[(1R)-1-(3,5-dichloro-2-methyl-4-pyridyl)ethoxy]-1H-indazol-3-yl]-2-[3-(dimethylamino)-3-methyl-azetidin-1-yl]pyridine-3-carbonitrile], in test [1], the IC50 is 50 to 200 nM. Also, the Kd on FGFR3 fell in the range of 1 to 50 nM; at FGFR1, 50 to 300 nM; on FGFR2, 50 to 300 nM; at FGFR3 (V555M) it was 1 to 50 nM; on FGFR4, 1 to 50 nM.
